These results are taken from patent US20250179047A1, “5-[7-(3,4-DIHYDRO-1H-ISOQUINOLINE-2-CARBONYL)-1,2,3,4 TETRAHYDROISOQUINOLIN-6-YL]-1H-PYRROLE-3-CARBOXAMIDE DERIVATIVES, PHARMACEUTICAL COMPOSITIONS CONTAINING THEM AND THEIR USES AS PRO-APOPTOTIC AGENTS” (LES LABORATOIRES SERVIER, priority 2022, published 2025).

One assay concerns BCL2 G101V. The experiment in a line: TR-FRET competitive binding assay, BCL2 G101V. On the set-up: species or system human. The conditions noted are these: ratio Ki BCL2 G101V / Ki BCL2 WT. Summed up:
(§1)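 Terbium-labelled N-terminal Halo-fusion BCL2 or BCLXL (E. coli), 0.5 nM, competed against fluorescein-labelled PUMA peptide (2 or 20 nM) for 2 h at 23° C in 50 mM Hepes pH 7.5, 150 mM NaCl, 5% DMSO. TR-FRET 520/495 nm ratio gave IC50 by four-parameter fit; Ki derived from IC50.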
(In general: In TR-FRET formats the signal depends on donor and acceptor labels being close together.)

The next assay concerns the target BCL2 D103Y (Homo sapiens, UniProt P10415, D103Y). The experiment in a line: TR-FRET competitive binding assay, BCL2 D103Y. As to conditions: Ki determined from IC50, read-out: TR_FRET EKI_Bcl2 D103Y. Summed up:
as §1

The next assay deals with BCL2 F104I (Homo sapiens, UniProt P10415, F104I). The experiment in a line: TR-FRET competitive binding assay, BCL2 F104I. The conditions noted are these: Ki determined from IC50, read-out: TR_FRET EKI_Bcl2 F104I. Summed up: as §1
For the next assay, the target named is BCL2 D111A (Homo sapiens, UniProt P10415, D111A). Nature of the assay: TR-FRET competitive binding assay, BCL2 D111A. As to conditions: Ki determined from IC50, read-out: TR_FRET EKI_Bcl2 D111A. Summed up:
as §1

In another assay the test system is KMS12PE Bcl2 D103Y. The experiment in a line: In vitro cytotoxicity CellTiterGlo 72 h, KMS12PE Bcl2 D103Y. Type of assay: cell-based. The conditions noted are these: Homo sapiens, KMS-12-PE, read-out: C50 nM, KMS12PE Bcl2 D103Y. How it is done:
(§2) KMS-12-PE (ACC 606) were purchased from the Leibniz-Institute DSMZ (Braunschweig, Germany) and were grown at 37° C. in a humidified atmosphere with 5% CO2 in media recommended by the suppliers. Lentiviral particles containing Bcl-2 wild type (also named “Bcl2 WT”), Bcl-2 mutated on G101V (also named “Bcl2 G101V”), Bcl-2 mutated on D103Y (also named “Bcl2 D103Y”), Bcl-2 mutated on D103V (also named “Bcl2 D103V”), Bcl-2 mutated on D103E (also named “Bcl2 D103E”), Bcl-2 mutated on F104I (also named “Bcl2 F104I”), Bcl-2 mutated on F104L (also named “Bcl2 F104L”), Bcl-2 mutated on D111A (also named “Bcl2 D111A”), Bcl-2 mutated on A113G (also named “Bcl2 A113G”), Bcl-2 mutated on R129L (also named “Bcl2 R129L”), Bcl-2 mutated on V156D (also named “Bcl2 V156D”) were cloned into pcLV-CMV-DEST-IRES-TagRFP. Lentiviral particles (1×10^6) were mixed with Polybrene at 8 μg/ml and transduced by spinoculation for 1 h at 32° C. and incubated overnight. After 8 days, TagRFP positive-cells were sorted by FACS. BCL2 expression was monitored by immunoblotting using anti-Flag and anti-BCL2 antibodies. Cells were seeded into 96-wells plates and treated with 1:3.16 serial dilution of compounds (9 different concentrations). Cell viability was assessed using CellTiterGlo reagent following treatment for 72 h. Results were normalized to the viability of cells without compounds (control wells). The C50 values were calculated using nonlinear regression algorithms in XCell software.
For orientation: In ATP-based viability assays light output follows the ATP content of the culture.

A further assay concerns KMS12PE Bcl2 D111A. The experiment in a line: In vitro cytotoxicity CellTiterGlo 72 h, KMS12PE Bcl2 D111A. Type of assay: cell-based. As to conditions: Homo sapiens, KMS-12-PE, read-out: C50 nM, KMS12PE Bcl2 D111A. Here is the method: as §2
The subject of the next assay is KMS12PE Bcl2 F104L. The experiment in a line: In vitro cytotoxicity CellTiterGlo 72 h, KMS12PE Bcl2 F104L. The conditions noted are these: Homo sapiens, KMS-12-PE, read-out: C50 nM, KMS12PE Bcl2 F104L. Type of assay: cell-based. Here is the method:
as §2

For `Cc1c(N(C(=O)c2cc(-c3cc4c(cc3C(=O)N3Cc5ccccc5C[C@H]3C)CN(C(=O)Cc3ccc(N5CCN6CCOC[C@@H]6C5)cc3F)CC4)n(C)c2C)c2ccc(O)cc2)cc(C#N)n1C` [Example 45, 5-[2-(2-{4-[(9aS)-octahydropyrazino[2,1-c][1,4]oxazin-8-yl]-2-fluorophenyl}acetyl)-7-[(3R)-3-methyl-1,2,3,4-tetrahydroisoquinoline-2-carbonyl]-1,2,3,4-tetrahydroisoquinolin-6-yl]-N-(5-cyano-1,2-dimethyl-1H-pyrrol-3-yl)-N-(4-hydroxyphenyl)-1,2-dimethyl-1H-pyrrole-3-carboxamide], in the assay with BCL2 G101V, the “TR_FRET EKI G101V/WT selectivty ratio” value amounted to 4.8. Also, the Ki on BCL2 D103Y came to 0.15 nM; on BCL2 F104I, 1.65 nM; at BCL2 D111A, 0.19 nM. In addition, the IC50 in the assay on KMS12PE Bcl2 D103Y was 0.2 nM; with KMS12PE Bcl2 D111A, 2.05 nM; with KMS12PE Bcl2 F104L, 22.5 nM.
Consider `COC[C@@H]1Cc2ccccc2CN1C(=O)c1cc2c(cc1-c1cc(C(=O)N(c3ccc(O)cc3)c3cc(C#N)n(C)c3C)c(C)n1C)CCN(C(=O)Cc1ccc(OCCC3CCOCC3)cc1F)C2` [Example 52, N-(5-cyano-1,2-dimethylpyrrol-3-yl)-5-[2-(2-{2-fluoro-4-[2-(oxan-4-yl)ethoxy]phenyl}acetyl)-7-{[(3S)-3-(methoxymethyl)-3,4-dihydro-1H-isoquinolin-2-yl]carbonyl}-3,4-dihydro-1H-isoquinolin-6-yl]-N-(4-hydroxyphenyl)-1,2-dimethylpyrrole-3-carboxamide], for which the “TR_FRET EKI G101V/WT selectivty ratio” value in the assay on BCL2 G101V was 2.3. The Ki was 0.23 nM at BCL2 D103Y, 0.77 nM at BCL2 F104I and 0.64 nM at BCL2 D111A. In addition, the IC50 turned out to be 1.8 nM in the assay with KMS12PE Bcl2 D103Y, 1.21 nM in the assay with KMS12PE Bcl2 D111A and 11.1 nM in the assay on KMS12PE Bcl2 F104L.
For the compound `Cc1c(N(C(=O)c2cc(-c3cc4c(cc3C(=O)N3Cc5ccccc5C[C@H]3CN3CCCCC3)CN(C(=O)Cc3ccc(OCCN5CCOCC5)cc3F)CC4)n(C)c2C)c2ccc(O)cc2)cc(C#N)n1C` [Example 43, N-(5-cyano-1,2-dimethylpyrrol-3-yl)-5-[2-(2-{2-fluoro-4-[2-(morpholin-4-yl)ethoxy]phenyl}acetyl)-7-{[(3S)-3-(piperidin-1-ylmethyl)-3,4-dihydro-1H-isoquinolin-2-yl]carbonyl}-3,4-dihydro-1H-isoquinolin-6-yl]-N-(4-hydroxyphenyl)-1,2-dimethylpyrrole-3-carboxamide], in the assay with BCL2 G101V, the “TR_FRET EKI G101V/WT selectivty ratio” value is on record as 5.0. Further, the Ki on BCL2 D103Y was found to be 0.14 nM; at BCL2 F104I, 0.16 nM; at BCL2 D111A it was 0.1 nM. Moreover, the results for the IC50 in the assay with KMS12PE Bcl2 D103Y, in the assay on KMS12PE Bcl2 D111A and in the assay on KMS12PE Bcl2 F104L were 1.28 nM, 1.13 nM and 8.49 nM, respectively.
Consider `Cc1c(C(=O)N(c2ccc(O)cc2)c2cc(C#N)n(C(F)F)c2C)cc(-c2cc3c(cc2C(=O)N2Cc4ccccc4C[C@H]2CN2CCCCC2)CN(C(=O)Cc2ccc(OCCN4CCOCC4)cc2)CC3)n1C` [Example 77], for which the “TR_FRET EKI G101V/WT selectivty ratio” value with BCL2 G101V is on record as 5.1. Also, the Ki at BCL2 D103Y turned out to be 0.14 nM; on BCL2 F104I it was 0.47 nM; at BCL2 D111A, 0.2 nM. Moreover, the IC50 was determined as 3.31 nM in the assay on KMS12PE Bcl2 D103Y, 3.64 nM with KMS12PE Bcl2 D111A and 31.9 nM in the assay with KMS12PE Bcl2 F104L.
Turning to `Cc1c(N(C(=O)c2cc(-c3cc4c(cc3C(=O)N3Cc5ccccc5C[C@H]3C)CN(C(=O)Cc3ccc(CCN5CCC(F)(F)CC5)cc3)CC4)n(C)c2C)c2ccc(O)cc2)cc(C#N)n1C` [Example 51, N-(5-cyano-1,2-dimethylpyrrol-3-yl)-5-[2-(2-{4-[2-(4,4-difluoropiperidin-1-yl)ethyl]phenyl}acetyl)-7-{[(3R)-3-methyl-3,4-dihydro-1H-isoquinolin-2-yl]carbonyl}-3,4-dihydro-1H-isoquinolin-6-yl]-N-(4-hydroxyphenyl)-1,2-dimethylpyrrole-3-carboxamide], the “TR_FRET EKI G101V/WT selectivty ratio” value in the assay with BCL2 G101V is 4.5. For the same compound, the results for the Ki at BCL2 D103Y, on BCL2 F104I and at BCL2 D111A were 0.92 nM, 4.91 nM and 0.89 nM, respectively. In addition, the IC50 in the assay on KMS12PE Bcl2 D103Y was 2.79 nM; with KMS12PE Bcl2 D111A it was 3.21 nM; in the assay with KMS12PE Bcl2 F104L it was 58.9 nM.
Take `Cc1c(N(C(=O)c2cc(-c3cc4c(cc3C(=O)N3Cc5ccccc5C[C@H]3C)CN(C(=O)Cc3ccc(OCCN5CCOCC5)cc3)CC4)n(C)c2C)c2ccc(O)cc2)cc(C#N)n1C` [Example 21, N-(5-cyano-1,2-dimethyl-1H-pyrrol-3-yl)-N-(4-hydroxyphenyl)-1,2-dimethyl-5-{7-[(3R)-3-methyl-1,2,3,4-tetrahydroisoquinoline-2-carbonyl]-2-(2-{4-[2-(morpholin-4-yl)ethoxy]phenyl}acetyl)-1,2,3,4-tetrahydroisoquinolin-6-yl}-1H-pyrrole-3-carboxamide]: the “TR_FRET EKI G101V/WT selectivty ratio” value with BCL2 G101V was 3.1. In addition, the values for the Ki at BCL2 D103Y, on BCL2 F104I and on BCL2 D111A were 0.35 nM, 0.29 nM and 0.19 nM, respectively. Moreover, the IC50 with KMS12PE Bcl2 D103Y amounted to 2.1 nM; in the assay on KMS12PE Bcl2 D111A, 1.27 nM; in the assay on KMS12PE Bcl2 F104L it was 15.8 nM.
Regarding `Cc1c(C(=O)N(c2ccc(O)cc2)c2cc(C#N)n(C(F)F)c2C)cc(-c2cc3c(cc2C(=O)N2Cc4ccccc4C[C@H]2CN2CCCCC2)CN(C(=O)Cc2ccc(OCCN4CCOCC4)cc2F)CC3)n1C` [Example 78, N-[5-cyano-1-(difluoromethyl)-2-methylpyrrol-3-yl]-5-[2-(2-{2-fluoro-4-[2-(morpholin-4-yl)ethoxy]phenyl}acetyl)-7-{[(3S)-3-(piperidin-1-ylmethyl)-3,4-dihydro-1H-isoquinolin-2-yl]carbonyl}-3,4-dihydro-1H-isoquinolin-6-yl]-N-(4-hydroxyphenyl)-1,2-dimethylpyrrole-3-carboxamide], the “TR_FRET EKI G101V/WT selectivty ratio” value in the assay on BCL2 G101V is given as 6.8. Also, the Ki on BCL2 D103Y amounted to 0.14 nM; at BCL2 F104I it was 0.43 nM; on BCL2 D111A, 0.26 nM. In addition, the IC50 with KMS12PE Bcl2 D103Y was determined as 1 nM; in the assay with KMS12PE Bcl2 D111A, 1.14 nM; in the assay with KMS12PE Bcl2 F104L, 8.71 nM.
`Cc1c(N(C(=O)c2cc(-c3cc4c(cc3C(=O)N3Cc5ccccc5C[C@H]3CN3CCC[C@H](C)C3)CN(C(=O)Cc3ccc(OCCN5CCOCC5)cc3F)CC4)n(C)c2C)c2ccc(O)cc2)cc(C#N)n1C` [Example 107]: the “TR_FRET EKI G101V/WT selectivty ratio” value in the assay on BCL2 G101V was determined as 4.3. For the same compound, the figures for the Ki at BCL2 D103Y, on BCL2 F104I and at BCL2 D111A were 0.32 nM, 0.34 nM and 0.22 nM, respectively. Also, the IC50 worked out at 0.97 nM in the assay with KMS12PE Bcl2 D103Y, 1.36 nM with KMS12PE Bcl2 D111A and 7.04 nM in the assay with KMS12PE Bcl2 F104L.
Take `Cc1c(N(C(=O)c2cc(-c3cc4c(cc3C(=O)N3Cc5ccccc5C[C@H]3C)CN(C(=O)Cc3ccc(OCCN5CCC(F)CC5)cc3)CC4)n(C)c2C)c2ccc(O)cc2)cc(C#N)n1C` [Example 53, N-(5-cyano-1,2-dimethyl-1H-pyrrol-3-yl)-5-[2-(2-{4-[2-(4-fluoropiperidin-1-yl)ethoxy]phenyl}acetyl)-7-[(3R)-3-methyl-1,2,3,4-tetrahydroisoquinoline-2-carbonyl]-1,2,3,4-tetrahydroisoquinolin-6-yl]-N-(4-hydroxyphenyl)-1,2-dimethyl-1H-pyrrole-3-carboxamide]: the “TR_FRET EKI G101V/WT selectivty ratio” value with BCL2 G101V worked out at 2.8. Moreover, the figures for the Ki at BCL2 D103Y, at BCL2 F104I and at BCL2 D111A were 0.18 nM, 0.35 nM and 0.18 nM, respectively. Further, the values for the IC50 in the assay with KMS12PE Bcl2 D103Y, in the assay on KMS12PE Bcl2 D111A and in the assay with KMS12PE Bcl2 F104L were 2.61 nM, 2.19 nM and 25.5 nM, respectively.
